Test results taken from PubChem BioAssay AID1645871.

Conditions: pampa; pH 5.0; 30.0 min; 50.0 µM

SMILES	Papp
CCC1=Nc2cc(C(=O)NC3CCCC3)ccc2Sc2ccc(Cl)cc21	640 ×10⁻⁶ cm/s
Cc1n[nH]c(C)c1CCc1nc2c3ccccc3nc(SCC(=O)Nc3ccc(F)cc3)n2n1	383 ×10⁻⁶ cm/s
Cc1noc([C@@H]2CN(C(=O)c3nn(C)c4ccccc34)C[C@H]2CO)n1	91.5 ×10⁻⁶ cm/s
CN1C(=O)C(=O)N2C(=C[C@]3(c4c[nH]c5ccccc45)c4ccccc4N[C@H]23)C1=O	986 ×10⁻⁶ cm/s
COc1cc(Cl)c(C)cc1Nc1c2c(nc3ccccc13)CCC2	> 1000 ×10⁻⁶ cm/s
CNC(=O)c1ccc(C)c(-n2c(C)cc(OCc3ccc(F)cc3F)c(Br)c2=O)c1	627 ×10⁻⁶ cm/s
COc1ccccc1Nc1ccnc(N2CCN(C(=O)c3ccccc3Cl)CC2)n1	35.8 ×10⁻⁶ cm/s
O=C(c1cc2ccccc2[nH]1)N1CCc2c(n(Cc3cccnc3)n(CCc3ccccc3)c2=O)C1	229 ×10⁻⁶ cm/s
CC(C)(N)C(=O)N[C@H](COCc1ccccc1)C(=O)N1CCC2(CC1)CN(S(C)(=O)=O)c1ccccc12	27.5 ×10⁻⁶ cm/s
Cc1cc(Br)ccc1NC(=O)C(NS(=O)(=O)c1cccs1)c1ccccc1 (stereo unspecified)	79.4 ×10⁻⁶ cm/s
C[C@@H](O)CNC(C)(C)CC(=O)N[C@@H]1CCc2ccccc2N(Cc2ccc(-c3ccccc3-c3nn[nH]n3)cc2)C1=O	5.85 ×10⁻⁶ cm/s
O=c1[nH]c(N2CCOCC2)nc2c1CCN(Cc1ccc(Cl)cc1F)CC2	71.2 ×10⁻⁶ cm/s
Cc1ccc(-c2nc(C)c(C(=O)Nc3ccc4c(c3)C(=O)N3CCC[C@H]3C(=O)N4)s2)cc1	48.2 ×10⁻⁶ cm/s
COc1ccc(-n2nc(C3CCCN(C(=O)C4CC4)C3)[nH]c2=O)cc1 (stereo unspecified)	109 ×10⁻⁶ cm/s
c1cc(-c2cc(-c3ccncc3)c3cncn3c2)c2cc[nH]c2c1	21.7 ×10⁻⁶ cm/s
CCOC(=O)Nc1ccc(NCc2ccc(F)cc2)nc1N	142 ×10⁻⁶ cm/s
CCOC(=O)C1=C(CN(CC)Cc2ccccc2)NC(=O)NC1c1ccc(OC(C)C)cc1 (stereo unspecified)	> 1000 ×10⁻⁶ cm/s
N#Cc1cccc(NC(=O)c2sc3nc4c(cc3c2N)N2CCC4CC2)c1	285 ×10⁻⁶ cm/s
CCCCOc1ccc(C(=O)N2CCC(c3n[nH]c(=O)n3-c3ccc(C)cc3)CC2)cc1	> 1000 ×10⁻⁶ cm/s
CC(C)n1cc(-c2ccc3c(c2)N(C)CC3)c2c(NS(=O)(=O)c3ccn(C)n3)ccnc21	> 1000 ×10⁻⁶ cm/s
Cc1ccc(NC(=O)c2c(N3CCCC3=O)c3cc(C)ccc3n2C)c(C)c1	> 1000 ×10⁻⁶ cm/s
COc1ccc2[nH]c(S(=O)Cc3ncc(C)c(OC)c3C)nc2n1 (stereo unspecified)	49.8 ×10⁻⁶ cm/s
Nc1c(-c2ccncc2)cc[nH]c1=O	2.72 ×10⁻⁶ cm/s
COc1ccc(OC)c(CN2CCNc3cc(Nc4ccccc4)ncc3C2)c1	2.33 ×10⁻⁶ cm/s
Cc1cccc(-c2noc([C@@H]3Cc4nc[nH]c4CN3C(=O)CC(C)(C)CC(=O)O)n2)c1	46.7 ×10⁻⁶ cm/s
CCCc1oc2ccc(NS(=O)(=O)c3ccc(OC)cc3)cc2c1C(=O)OCC	1.84 ×10⁻⁶ cm/s

SMILES	Papp
COc1ccc(-n2nc(C3CCN([S+](=O)([O-])c4cccc(C(F)(F)F)c4)CC3)[nH]c2=O)cc1	434 ×10⁻⁶ cm/s
COc1ccc(OC)c(Nc2c3c(nc4ccccc24)CCC3)c1	129 ×10⁻⁶ cm/s
Cc1ccccc1S(=O)(=O)N1CCCC(CCC(=O)NCCN(C)C2CCCCC2)C1 (stereo unspecified)	32.8 ×10⁻⁶ cm/s
N#Cc1ccc(C(=O)Nc2ccc(Cl)c(-c3nc4cc(Cl)ccc4o3)c2)c(F)c1	679 ×10⁻⁶ cm/s
COc1cc(C2CC(=O)Nc3cc4c(cc32)OCCO4)cc(Br)c1OC (stereo unspecified)	> 1000 ×10⁻⁶ cm/s
COCC(C)NCc1cc2ccc(OC)cc2nc1N1CCN(c2ccc(F)cc2)CC1 (stereo unspecified)	576 ×10⁻⁶ cm/s
O=C(NCc1ccccc1)c1nc(S(=O)(=O)Cc2ccc(F)cc2)ncc1Cl	296 ×10⁻⁶ cm/s
CCN(C(=O)C(NS(=O)(=O)c1ccc(Br)s1)c1ccccc1)c1ccc(C)c(C)c1 (stereo unspecified)	110 ×10⁻⁶ cm/s
COC(=O)Nc1nc2ccc(SC(C)C)cc2[nH]1	510 ×10⁻⁶ cm/s
Cc1cccc(-n2ncc3c2CCCC3NC(=O)c2c(F)ccc(F)c2F)c1C (stereo unspecified)	552 ×10⁻⁶ cm/s
O=C(NCCCO)c1ccc(-c2ncc3cnc(-c4cccc(F)c4)cn23)cc1	21.2 ×10⁻⁶ cm/s
CCCCCn1cc2c(c1-c1ccc(Br)cc1)c(=O)n(C)c(=O)n2C	946 ×10⁻⁶ cm/s
Cc1ccc(C(=O)Nc2ccc3oc(-c4cccnc4)nc3c2)cc1[N+](=O)[O-]	693 ×10⁻⁶ cm/s
COc1cccc(N2CCN(c3ncc4c(n3)CCN(Cc3ccc(Br)cc3)C4)CC2)c1	939 ×10⁻⁶ cm/s
Fc1ccc(CN2CCNc3cc(Nc4ccccc4)ncc3C2)cc1F	340 ×10⁻⁶ cm/s
O=C(NC[C@H]1Cn2c(-c3ccc(Cl)cc3)cnc2CO1)C1CCCC1	19.4 ×10⁻⁶ cm/s
O=C(O)c1ccc(N2C(=O)/C(=C/c3ccc(-c4ccc([N+](=O)[O-])cc4)o3)C=C2c2ccccc2)cc1	37.5 ×10⁻⁶ cm/s
O=C(NCCCN1CCCC1=O)c1ccc(-c2ncc3cnc(-c4ccccc4)cn23)cc1	193 ×10⁻⁶ cm/s
COc1ccc2c(c1)CCc1c-2n[nH]c1C(=O)N1CCc2c(nc3cc(-c4ccccc4)[nH]n3c2=O)C1	15.8 ×10⁻⁶ cm/s
CCOc1ccccc1C(=O)Nc1ccncc1C(=O)Nc1cccc(S(=O)(=O)C(F)(F)F)c1	139 ×10⁻⁶ cm/s
Cc1c(C)n(Cc2ccccc2)c2ccc(C(=O)OCCN(C)C)cc12	> 1000 ×10⁻⁶ cm/s
CC(C)c1ccccc1-c1nc(NCc2ccc(-c3cccnc3)cc2)c2ccccc2n1	> 1000 ×10⁻⁶ cm/s
CCn1ncc(NC(=O)Cn2ncc3cc(-c4cccc(OC)c4)ccc32)n1	853 ×10⁻⁶ cm/s
O=C(CCCN1CCC(n2c(=O)[nH]c3ccccc32)CC1)c1ccc(F)cc1	98.2 ×10⁻⁶ cm/s
CCN1CCCC1CNC(=O)c1cc(S(=O)(=O)CC)c(N)cc1OC (stereo unspecified)	6.63 ×10⁻⁶ cm/s
Cn1cnc2c(F)c(Nc3ccc(Br)cc3Cl)c(C(=O)NOCCO)cc21	151 ×10⁻⁶ cm/s

SMILES	Papp
Cc1cc(C)nc(NC(=S)N2CCN(Cc3ccc(C(F)(F)F)cc3)CC2)c1	> 1000 ×10⁻⁶ cm/s
COc1ncc(-c2n[nH]c3c2CC(=O)N(c2ccccc2)C3)cn1	42.5 ×10⁻⁶ cm/s
CC(C)Oc1cccc(C2CC(=O)Nc3cc4c(cc32)OCO4)c1 (stereo unspecified)	785 ×10⁻⁶ cm/s
Cn1c(CN2CCCCC2)nc2cc(NC(=O)c3cccc(Br)c3)ccc21	178 ×10⁻⁶ cm/s
CCOC(=O)c1ccc(NC(=O)N2Cc3[nH]cnc3C[C@H]2c2nc(C(C)C)no2)cc1	16.2 ×10⁻⁶ cm/s
CN1CCN(c2ccc(Nc3c4ccccc4nc4ccccc34)cc2)CC1	3.75 ×10⁻⁶ cm/s
Cc1ccc(Nc2nc(C)c(NC(=O)c3ccc(C)cc3)c(Nc3ccc(C)cc3)n2)cc1	6.76 ×10⁻⁶ cm/s
c1ccc(Nc2cc3c(cn2)CN(Cc2ccsc2)CCN3)cc1	15.3 ×10⁻⁶ cm/s
CC[C@H](C)[C@@H]([C@@H](CC(=O)N1CCC[C@H]1[C@H](OC)[C@@H](C)C(=O)N[C@@H](Cc1ccccc1)c1nccs1)OC)N(C)C(=O)[C@@H](NC(=O)[C@H](C(C)C)N(C)C)C(C)C	224 ×10⁻⁶ cm/s
Cc1ccc(C(=O)N2CCc3sc(C(=O)NC(C)c4ccccc4)cc3C2)cc1 (stereo unspecified)	425 ×10⁻⁶ cm/s
CCOC(=O)c1ccc(N2C(=O)c3n[nH]c(-c4ccco4)c3C2c2ccc(C)cc2)cc1 (stereo unspecified)	231 ×10⁻⁶ cm/s
Cc1cc(C)cc(C(=O)Nc2ccc3c(N4CCCC4)ncnc3c2)c1	506 ×10⁻⁶ cm/s
C[C@H]1CN(C(=O)Nc2ccc(F)cc2)C[C@@H]1c1nc(-c2ccccc2)no1	809 ×10⁻⁶ cm/s
CCc1ccccc1-n1c(SCC(=O)Nc2ccc(C)cc2)nc2n[nH]c(C)c2c1=N	> 1000 ×10⁻⁶ cm/s
O=C(c1ccccc1)N1CCC(c2nn(-c3ccc(F)cc3)c(=O)[nH]2)CC1	521 ×10⁻⁶ cm/s
Cc1ccc(C)c(CN2C(=O)c3ccccc3S(=O)c3ccc(C(=O)N4CCN(c5ccccc5F)CC4)cc32)c1 (stereo unspecified)	932 ×10⁻⁶ cm/s
Cc1ccc2nc(-c3cc(NC(=O)c4ccc5c(c4)OCCO5)ccc3Cl)oc2c1	28.6 ×10⁻⁶ cm/s
COc1ccccc1Nc1ccnc(N2CCN(C(=O)c3ccc(C)cc3)CC2)n1	> 1000 ×10⁻⁶ cm/s
Cc1ccnc(NC(=O)C2CC(=O)N(c3n[nH]c4cc(Br)ccc34)C2)c1 (stereo unspecified)	62.8 ×10⁻⁶ cm/s
CSc1ccccc1N1CCN(CCCCCC(=O)NC2CCCc3ccccc32)CC1 (stereo unspecified)	628 ×10⁻⁶ cm/s
O=C(Nc1cccnc1)c1cccs1	181 ×10⁻⁶ cm/s
O=C(c1ccc2c(c1)OCO2)N1CCC(Cc2nc(-c3cnccn3)no2)CC1	44 ×10⁻⁶ cm/s
Cc1ccc(NC(=O)c2cc(-c3ccc[nH]3)n[nH]2)cc1F	235 ×10⁻⁶ cm/s
COc1ccc(CN2CCc3c(c(=O)n4ncc(C(=O)N5CCN(c6ccccc6OC)CC5)c4n3C)C2)cc1	324 ×10⁻⁶ cm/s
COc1ccc(-c2ccc3ncc(Nc4ccncc4)n3n2)cc1OC	26.2 ×10⁻⁶ cm/s
O=C(NC1CC1)C1CCCN1C(=O)c1cccc(-c2ccccn2)c1 (stereo unspecified)	76.5 ×10⁻⁶ cm/s

SMILES	Papp
COc1ccc(-c2ccc3ncc4c(c3c2)n(-c2ccc(N3CCNCC3)c(C(F)(F)F)c2)c(=O)n4C)cn1	153 ×10⁻⁶ cm/s
COc1ccc2[nH]c3c(c2c1)CCNC31CCN(S(=O)(=O)c2c(C)noc2C)CC1	161 ×10⁻⁶ cm/s
CCCCN(C)C(=O)c1c(C)sc2ccn(CCC)c(=O)c12	113 ×10⁻⁶ cm/s
CC/C=C\C/C=C\C/C=C\C/C=C\C/C=C\C/C=C\CCC(=O)NCCO	19.5 ×10⁻⁶ cm/s
COc1ccccc1Nc1ccnc(N2CCN(C(=O)c3ccc(F)cc3)CC2)n1	853 ×10⁻⁶ cm/s
C[C@H]1CCC[C@H](O)CCC/C=C/c2cc(O)cc(O)c2C(=O)O1	795 ×10⁻⁶ cm/s
Cc1nn2c(c1-c1ccccc1-c1ccccc1)N(CCC(C)C)CCC2	350 ×10⁻⁶ cm/s
Cc1ccc(S(=O)(=O)Nc2nc3ccc(C)cc3nc2Nc2ccc3c(c2)OCO3)cc1	334 ×10⁻⁶ cm/s
CC(=O)Nc1ccc(CN2CCc3nc(C(C)C)nc(-c4ccc(Cl)cc4)c3CC2)cc1	476 ×10⁻⁶ cm/s
Cc1cc(CNC(=O)c2ccc3c(c2)n(CC2CC2)c(=O)n3C2CCCCC2)on1	870 ×10⁻⁶ cm/s
CCCCc1ccc(NC(=O)c2ccc3c(c2)N(S(C)(=O)=O)CC3)cc1	385 ×10⁻⁶ cm/s
COc1cc([C@@H](CC(=O)O)c2ccc(C)c(CN3C[C@@H](C)Oc4ccccc4S3(=O)=O)c2)cc2nnn(C)c12	898 ×10⁻⁶ cm/s
COC[C@@H]1CN(C(=O)c2n[nH]c3ccccc23)C[C@H]1c1nc(C)no1	37.8 ×10⁻⁶ cm/s
CCOc1ccc(S(=O)(=O)NCc2cccnc2)cc1NC(=O)c1ccccc1F	278 ×10⁻⁶ cm/s
CN1Cc2c(cc(N3CCOCC3)nc2-c2ccccc2OC(F)(F)F)C1=O	> 1000 ×10⁻⁶ cm/s
COc1ccc(-c2[nH]nc3ncc(-c4ccc(CO)cc4)nc23)cc1F	428 ×10⁻⁶ cm/s
O=C(NCCc1ccccn1)C1CC(=O)N(c2n[nH]c3cc(Br)ccc23)C1 (stereo unspecified)	11.5 ×10⁻⁶ cm/s
CC(C)CNc1ccnc(NCc2csc(-c3ccccc3)n2)n1	> 1000 ×10⁻⁶ cm/s
CCN(CCN(C)C)C(=O)C1CCN(S(=O)(=O)c2c(C)noc2/C=C/c2ccccc2F)CC1	565 ×10⁻⁶ cm/s
CCC(CC)c1cc([C@H]2CN3CC[C@H]2C[C@@H]3CNS(=O)(=O)c2cccs2)nc(-c2ccncc2)n1	750 ×10⁻⁶ cm/s
COc1cc(C2c3c(oc4cc(C)c(C)cc4c3=O)C(=O)N2CCCN2CCOCC2)ccc1O (stereo unspecified)	25.3 ×10⁻⁶ cm/s
CCOc1cc(CNc2ccc(O)cc2)ccc1OCc1ccc(Cl)cc1	187 ×10⁻⁶ cm/s
CN1CCN(Cc2ccc(-c3ccc(C(C)(C)C#N)cc3)nc2)CC1	47.3 ×10⁻⁶ cm/s
